Data published in patent US20140315809A1, “CALCIMIMETICS AND METHODS FOR THEIR USE” (KAI PHARMACEUTICALS INC., priority 2011, published 2014).
Like-named read-outs stand apart in the source and are kept apart here. Values belong to the molecule of their own block, whether it stands above or below them.

Experiments:
[1] = test system: patients diagnosed with CKD-BMD and SHPT receiving hemodialysis; experiment: Single-dose clinical study: corrected calcium; type: in vivo, human; conditions: single IV bolus 5-60 mg
Method: (§1) A clinical study was performed to assess the safety and tolerability of rising single doses of Ac-c(C)arrrar-NH2 (SEQ ID NO:3), administered by IV bolus to patients diagnosed with CKD-BMD and SHPT, and who were receiving hemodialysis. Data were generated to measure changes in patient serum intact PTH (iPTH) and serum calcium as well as bioavailability of the single dose of Ac-c(C)arrrar-NH2 (SEQ ID NO:3).
A double-blind, randomized, placebo-controlled, multicenter study in subjects receiving thrice-weekly hemodialysis (HD) was designed and carried out. The major inclusion criteria included hemodialysis for at least 3 months prior to the start of the study, a serum iPTH level greater than 300 pg/mL, a serum cCa (corrected calcium) level greater than or equal to 9.0 mg/dL and receiving of stable doses of active vitamin D or analogs, phosphate binders, and calcium supplements. […]
Serum iPTH levels were determined using the electrochemiluminescence immunoassay (ECLIA) on the Roche Elecsys® analyzer. Calcium levels were adjusted for albumin <4 g/dL with the following equation: cCa=[measured Ca in mg/dL]+[4-(albumin in g/dL)]×0.8
The effects of Ac-c(C)arrrar-NH2 (SEQ ID NO:3) administration on serum iPTH and corrected calcium levels was also determined in this study. […] Blood from each subject was then analyzed to determine levels of iPTH and corrected calcium. […]

[2] = test system: patients diagnosed with CKD-BMD and SHPT receiving hemodialysis; experiment: Single-dose clinical study: adverse events; type: in vivo, human; conditions: for Adverse Event: Anemia / Adverse Event: Congestive heart failure / Adverse Event: Decreased ionized calcium / Adverse Event: Gastro-esophageal reflux / Adverse Event: Injection site pruritis / Adverse Event: Paresthesias / Adverse Event: Pneumonia / Adverse Event: Toothache / Number of subjects with ≧1 AE: n (%) of subjects
Method: as §1
(§2) A double-blind, randomized, placebo-controlled, multicenter study in subjects receiving thrice-weekly hemodialysis (HD) was designed and carried out. The major inclusion criteria included hemodialysis for at least 3 months prior to the start of the study, a serum iPTH level greater than 300 pg/mL, a serum cCa (corrected calcium) level greater than or equal to 9.0 mg/dL and receiving of stable doses of active vitamin D or analogs, phosphate binders, and calcium supplements.
(§3) Cohorts 1, 2 and 3 were conducted with a two-period crossover design. Each cohort enrolled 4 subjects randomized 1:1 to Ac-c(C)arrrar-NH2 (SEQ ID NO:3) followed by placebo or placebo followed by Ac-c(C)arrrar-NH2 (SEQ ID NO:3). The dose levels of Ac-c(C)arrrar-NH2 (SEQ ID NO:3) for Cohorts 1-3 were 5, 10 and 20 mg. Cohort 4 enrolled 8 subjects who were randomized 1:1 to 40 mg Ac-c(C)arrrar-NH2 (SEQ ID NO:3) or placebo in a parallel group. Cohort 5 enrolled 8 subjects were randomized 1:1 to 60 mg Ac-c(C)arrrar-NH2 (SEQ ID NO:3) or placebo in a parallel group.
(§4) Ac-c(C)arrrar-NH2 (SEQ ID NO:3) or placebo was administered by IV bolus injection 2-4 hours following completion of HD.
Adverse events were captured through 7 days after study drug administration.
Adverse events experienced by each of the subjects was recorded for 7 days after administration of the Ac-c(C)arrrar-NH2 (SEQ ID NO:3) or placebo. A single serious adverse event occurred in one subject who had been treated with placebo in the 10 mg dose cohort. The subject discontinued form the study prior to receiving Ac-c(C)arrrar-NH2 (SEQ ID NO:3). There were no reports of nausea, vomiting or diarrhea.

[3] = Single-dose clinical study: pharmacokinetics, noncompartmental analysis; type: in vivo, human; conditions: for clearance / AUC / Cmax / half-life / Vd: human; for Vd: read-out: Vss
Method: as §1, §2, §3, §4
Pharmacokinetic (PK) analysis was performed on samples obtained from the treated subjects to determine bioavailability of the administered Ac-c(C)arrrar-NH2 (SEQ ID NO:3). […] Clearance (CL) and volume of distribution as steady state (Vss) values appear to be dose-independent over the range evaluation. Total clearance of Ac-c(C)arrrar-NH2 (SEQ ID NO:3) was approximately about 2 L/h. Ac-c(C)arrrar-NH2 (SEQ ID NO:3) was readily cleared from the central compartment by hemodialysis.

[4] = test system: 5/6 nephrectomy (Nx) rat model of renal insufficiency; experiment: PTH suppression in 5/6 Nx rats, daily dosing for 28 days; type: in vivo; conditions: daily 28 days, Ac-c(C)arrrar-NH2 1 mg/kg IV, cinacalcet 10 mg/kg PO
Method: The therapeutic efficacy of Ac-c(C)arrrar-NH2 (SEQ ID NO:3) was assessed using the 5/6 nephrectomy (Nx) rat model of renal insufficiency. The 5/6 Nx male rats were obtained from Charles River Laboratories (Wilmington, Mass.). These rats have undergone surgical removal of one kidney and ⅔ of the other kidney and were fed a high-phosphate diet. All experimental procedures with animals were performed according to IACUC guidelines. Statistical analysis was performed using one-way ANOVA with Bonferroni post test. All p-values are nominal.
Tail vein blood samples were taken periodically for measurement of PTH. PTH was measured using the Immutopics BioActive Intact ELISA (Cat #60-2700; Immutopics, San Clemente, Calif.).

[5] = plasma, Cohort 1, 5 mg single IV bolus, hemodialysis subjects, geometric mean
[6] = plasma, Cohort 2, 10 mg single IV bolus, hemodialysis subjects, geometric mean
[7] = plasma, Cohort 3, 20 mg single IV bolus, hemodialysis subjects, geometric mean
[8] = plasma, Cohort 4, 40 mg single IV bolus, hemodialysis subjects, geometric mean
[9] = plasma, Cohort 5, 60 mg single IV bolus, hemodialysis subjects, geometric mean

corrected calcium level, lowest in any subject at any time during the study [1]: ≥ 7.5 mg/dL
Clearance (CL) and volume of distribution (Vss) relative to dose ([3]; 5-60 mg single IV bolus): dose-independent
clearance ([3]; in vivo, intravenous, estimated, hemodialysis subjects, read-out: Hemodialysis clearance (converted)): ~550 mL/min
AUC [3, 5]: 1080 ng·h/mL
Cmax [3, 5]: 133 ng/mL
clearance ([3]; plasma, Cohort 1, 5 mg single IV bolus, hemodialysis subjects, geometric mean, read-out: CL (converted)): 28 mL/min
half-life ([3]; plasma, Cohort 1, 5 mg single IV bolus, hemodialysis subjects, geometric mean, read-out: T½ (converted)): 121 h
Vd [3, 5]: 278 L
AUC [3, 6]: 2770 ng·h/mL
Cmax [3, 6]: 257 ng/mL
clearance ([3]; plasma, Cohort 2, 10 mg single IV bolus, hemodialysis subjects, geometric mean, read-out: CL (converted)): 31.8 mL/min
half-life ([3]; plasma, Cohort 2, 10 mg single IV bolus, hemodialysis subjects, geometric mean, read-out: T½ (converted)): 81.7 h
Vd [3, 6]: 203 L
AUC [3, 7]: 4680 ng·h/mL
Cmax [3, 7]: 479 ng/mL
clearance ([3]; plasma, Cohort 3, 20 mg single IV bolus, hemodialysis subjects, geometric mean, read-out: CL (converted)): 20.2 mL/min
half-life ([3]; plasma, Cohort 3, 20 mg single IV bolus, hemodialysis subjects, geometric mean, read-out: T½ (converted)): 175 h
Vd [3, 7]: 293 L
AUC [3, 8]: 8890 ng·h/mL
Cmax [3, 8]: 686 ng/mL
AUC [3, 9]: 14800 ng·h/mL
Cmax [3, 9]: 1080 ng/mL
clearance ([3]; plasma, Cohort 5, 60 mg single IV bolus, hemodialysis subjects, geometric mean, read-out: CL (converted)): 24.2 mL/min
half-life ([3]; plasma, Cohort 5, 60 mg single IV bolus, hemodialysis subjects, geometric mean, read-out: T½ (converted)): 115 h
Vd [3, 9]: 232 L
half-life ([3]; plasma, across the dose range 5-60 mg single IV bolus, read-out: geometric mean terminal elimination half-life): 81.7 to 175 h
clearance ([3]; plasma, single IV bolus, hemodialysis subjects, read-out: Total clearance (converted)): ~33.3 mL/min
Structure (SMILES): CC(=O)N[C@H](CSSC[C@H](N)C(=O)O)C(=O)N[C@H](C)C(=O)N[C@H](CCCNC(=N)N)C(=O)N[C@H](CCCNC(=N)N)C(=O)N[C@H](CCCNC(=N)N)C(=O)N[C@H](C)C(=O)N[C@H](CCCNC(=N)N)C(N)=O [Ac-c(C)arrrar-NH2]
Adverse Event: Anemia ([2]; 5 mg dose cohort): 0 (0%)
Adverse Event: Congestive heart failure ([2]; 5 mg dose cohort): 0 (0%)
Adverse Event: Decreased ionized calcium ([2]; 5 mg dose cohort): 0 (0%)
Adverse Event: Gastro-esophageal reflux ([2]; 5 mg dose cohort): 1 (25%)
Adverse Event: Injection site pruritis ([2]; 5 mg dose cohort): 0 (0%)
Adverse Event: Paresthesias ([2]; 5 mg dose cohort): 1 (25%)
Adverse Event: Pneumonia ([2]; 5 mg dose cohort): 0 (0%)
Adverse Event: Toothache ([2]; 5 mg dose cohort): 0 (0%)
Number of subjects with ≧1 AE ([2]; 5 mg dose cohort): 1 (25%)
Adverse Event: Anemia ([2]; 10 mg dose cohort): 0 (0%)
Adverse Event: Congestive heart failure ([2]; 10 mg dose cohort): 0 (0%)
Adverse Event: Decreased ionized calcium ([2]; 10 mg dose cohort): 1 (33%)
Adverse Event: Gastro-esophageal reflux ([2]; 10 mg dose cohort): 0 (0%)
Adverse Event: Injection site pruritis ([2]; 10 mg dose cohort): 0 (0%)
Adverse Event: Paresthesias ([2]; 10 mg dose cohort): 0 (0%)
Adverse Event: Pneumonia ([2]; 10 mg dose cohort): 0 (0%)
Adverse Event: Toothache ([2]; 10 mg dose cohort): 0 (0%)
Number of subjects with ≧1 AE ([2]; 10 mg dose cohort): 1 (33%)
Adverse Event: Anemia ([2]; 20 mg dose cohort): 0 (0%)
Adverse Event: Congestive heart failure ([2]; 20 mg dose cohort): 0 (0%)
Adverse Event: Decreased ionized calcium ([2]; 20 mg dose cohort): 0 (0%)
Adverse Event: Gastro-esophageal reflux ([2]; 20 mg dose cohort): 0 (0%)
Adverse Event: Injection site pruritis ([2]; 20 mg dose cohort): 0 (0%)
Adverse Event: Paresthesias ([2]; 20 mg dose cohort): 0 (0%)
Adverse Event: Pneumonia ([2]; 20 mg dose cohort): 0 (0%)
Adverse Event: Toothache ([2]; 20 mg dose cohort): 1 (25%)
Number of subjects with ≧1 AE ([2]; 20 mg dose cohort): 1 (25%)
Adverse Event: Anemia ([2]; 40 mg dose cohort): 0 (0%)
Adverse Event: Congestive heart failure ([2]; 40 mg dose cohort): 0 (0%)
Adverse Event: Decreased ionized calcium ([2]; 40 mg dose cohort): 4 (100%)
Adverse Event: Gastro-esophageal reflux ([2]; 40 mg dose cohort): 0 (0%)
Adverse Event: Injection site pruritis ([2]; 40 mg dose cohort): 1 (25%)
Adverse Event: Paresthesias ([2]; 40 mg dose cohort): 1 (25%)
Adverse Event: Pneumonia ([2]; 40 mg dose cohort): 0 (0%)
Adverse Event: Toothache ([2]; 40 mg dose cohort): 0 (0%)
Number of subjects with ≧1 AE ([2]; 40 mg dose cohort): 4 (100%)
Adverse Event: Anemia ([2]; 60 mg dose cohort): 0 (0%)
Adverse Event: Congestive heart failure ([2]; 60 mg dose cohort): 0 (0%)
Adverse Event: Decreased ionized calcium ([2]; 60 mg dose cohort): 2 (50%)
Adverse Event: Gastro-esophageal reflux ([2]; 60 mg dose cohort): 0 (0%)
Adverse Event: Injection site pruritis ([2]; 60 mg dose cohort): 0 (0%)
Adverse Event: Paresthesias ([2]; 60 mg dose cohort): 0 (0%)
Adverse Event: Pneumonia ([2]; 60 mg dose cohort): 0 (0%)
Adverse Event: Toothache ([2]; 60 mg dose cohort): 0 (0%)
Number of subjects with ≧1 AE ([2]; 60 mg dose cohort): 2 (50%)
tolerability ([2]; single IV bolus 5-60 mg): very well-tolerated
reports of nausea, vomiting or diarrhea ([2]; single IV bolus 5-60 mg, 7 days after administration): no reports
total plasma exposure (Cmax and AUCall) relative to dose ([3]; 5-60 mg single IV bolus): reasonably proportional to the administered dose

Structure (SMILES): C[C@@H](NCCCc1cccc(C(F)(F)F)c1)c1cccc2ccccc12 [cinacalcet]
PTH levels (in words) ([4]; 6 hours after the last dosing): reduced
PTH levels (in words) ([4]; 16 hours after the last dosing): increased
PTH levels (in words) ([4]; 48 hours after the last dosing): increased
